# Test results reported in patent US20130065818A1, “Arylamide Compounds And Compositions And Uses Thereof” (POLYMEDIX, priority 2006, published 2013).
# Values joined by “and” are separate entries in the source; they are usually repeats but may differ in a detail not shown here. Identical values can stand only once. “Also recorded” adds a separate entry of the source.
# Legend:
# [1] = system: fluoroquinolone-resistant, methicillin-resistant Staphylococcus aureus (K950); assay: NZW rabbit keratitis model, corneal colony counts; type: in vivo; details: for Statistical comparison of corneal colony counts (< = significantly fewer colony counts): abraded (removed) epithelium, drops every 15 min
# From the text: (§1) One purpose of the following experiments was to compare the efficacy of 1% Oligomer 2, 0.5% Oligomer 2, and 5% vancomycin in the treatment of a fluoroquinolone-resistant, methicillin-resistant Staphylococcus aureus infection in the NZW rabbit keratitis model with or without intact corneal epithelia.
# Nothing was done to the right eyes.
# as §1, with “0.25%” for “1%”, “with and without 0.005% benzalkonium chloride,” for “0.5% Oligomer 2,”, “epithelia. The 0.005% benzalkonium chloride has been added to try to increase the penetration of 0.25% Oligomer 2 through the corneal epithelium.” for “epithelia.”
# One purpose of the following experiments was to determine the efficacy of 0.25% Oligomer 4, with and without 200 μM Farnesol, and 200 μM Farnesol in the treatment of a fluoroquinolone-resistant and methicillin-resistant Staphylococcus aureus infection in the NZW rabbit keratitis model with or without intact corneal epithelia. The 200 μM Farnesol has been added to try to increase the efficacy and penetration of 0.25% Oligomer 4 through the corneal epithelium.
# [2] = Draize ocular toxicity scoring, NZW rabbit ocular toxicity model; type: in vivo; design: key to MMTS / Score (Draize total): Draize total score of cornea, iris and conjunctivae; maximum 110; III. B. Chemosis / I. A. Cornea opacity / I. B. Area of cornea involved / II. A. Iris / III. A. Conjunctivae redness / III. C. Discharge: scale not given here
# Protocol: The ocular toxicity of several concentrations of Oligomer 2, using the Draize ocular toxicity scoring system, in the NZW rabbit ocular toxicity model was carried out.
# (§2) Rabbits were treated in both eyes with (37 μl) topical drops every 30 minutes for 3 hours (7 total doses). One rabbit was treated with Tris-Buffered Saline and served as a negative control. Rabbits were evaluated in a masked fashion for ocular toxicity by an ophthalmologist with specialty training in corneal and external disease. Ocular toxicity was evaluated using the Draize scoring system after treatment on Day 0 and on Day 3 post treatment for any delayed toxicity. (Draize et al., J. Pharmacol. Exp. Ther., 1944, 82, 377-390).
# A brief summary of the Draize scoring system for ocular lesions is provided below
# Total Maximum Score: 110 represents the sum of all scores obtained for the cornea, iris and conjunctivae.
# The ocular toxicity of several formulations of Oligomer 4 with and without farnesol, using the Draize ocular toxicity scoring system, in the NZW rabbit ocular toxicity model was carried out.
# as §2, with “external disease 30 minutes after the final dose.” for “external disease.”, “system (see above)” for “system”, “Day 2” for “Day 3”, “toxicity.” for “toxicity. (Draize et al., J. Pharmacol. Exp. Ther., 1944, 82, 377-390).”
# [3] = 0.25% Oligomer 4 in TBS, Day 0, per eye
# [4] = 0.25% Oligomer 4 in TBS, Day 2, per eye
# [5] = 0.25% in Tris Buffered Saline (TBS), Day 0
# [6] = 0.25% in Tris Buffered Saline (TBS), Day 2
# [7] = 0.5% Oligomer 4 in TBS, Day 0, per eye
# [8] = 0.5% Oligomer 4 in TBS, Day 2, per eye
# [9] = 0.5% in Tris Buffered Saline (TBS), Day 0
# [10] = 0.5% in Tris Buffered Saline (TBS), Day 2
smiles,measurement,setting,value
N=C(N)NCCCCC(=O)Nc1cc(C(F)(F)F)cc(NC(=O)c2cc(C(=O)Nc3cc(C(F)(F)F)cc(NC(=O)CCCCNC(=N)N)c3O[C@@H]3CCNC3)ncn2)c1O[C@@H]1CCNC1 [Oligomer 4],Effect of addition of Farnesol on penetration and antibacterial efficacy of Oligomer 4,[1]; Ker-4,did nothing to promote penetration; also recorded: a trend toward antagonism
same,Reduction of colony counts compared with the Onset of Therapy Control,"[1]; Ker-4, corneal epithelium removed",effective
same,Effect of addition of Farnesol on penetration of 0.25% Oligomer 4 through the intact corneal epithelium,[1]; in vivo,did not appear aid in the penetration
same,Classification of eye irritation,"[2]; 0.25% Oligomer 4 in TBS, Day 0",Practically Non-Irritating
same,MMTS,"[2]; 0.25% Oligomer 4 in TBS, Day 0",1.5
same,MMTS classification symbol,"[2]; 0.25% Oligomer 4 in TBS, Day 0",PN (0.6-2.5 Practically Non-Irritating)
same,I. A. Cornea opacity,[2]; [3],0
same,I. B. Area of cornea involved,[2]; [3],0
same,"I. Tot (cornea, A × B × 5)",[2]; [3],0
same,II. A. Iris,[2]; [3],0
same,"II. Tot (iris, A × 5)",[2]; [3],0
same,III. A. Conjunctivae redness,[2]; [3],0
same,III. B. Chemosis,[2]; [3],0
same,Classification of eye irritation,"[2]; 0.25% Oligomer 4 in TBS, Day 2",Non-Irritating
same,MMTS,"[2]; 0.25% Oligomer 4 in TBS, Day 2",0.5
same,MMTS classification symbol,"[2]; 0.25% Oligomer 4 in TBS, Day 2",N (0.0-0.5 Non-Irritating)
same,I. A. Cornea opacity,[2]; [4],0
same,I. B. Area of cornea involved,[2]; [4],0
same,"I. Tot (cornea, A × B × 5)",[2]; [4],0
same,II. A. Iris,[2]; [4],0
same,"II. Tot (iris, A × 5)",[2]; [4],0
same,III. A. Conjunctivae redness,[2]; [4],0
same,III. B. Chemosis,[2]; [4],0
same,MMTS,[2]; [5],1.5
same,MMTS classification,[2]; [5],PN (0.6-2.5 Practically Non-Irritating)
same,MMTS,[2]; [6],0.5
same,MMTS classification,[2]; [6],N (0.0-0.5 Non-Irritating)
same,Classification of eye irritation,"[2]; 0.5% Oligomer 4 in TBS, Day 0",Mildly Irritating
same,MMTS,"[2]; 0.5% Oligomer 4 in TBS, Day 0",6.5
same,MMTS classification symbol,"[2]; 0.5% Oligomer 4 in TBS, Day 0",M1 (2.6-15.0 Minimally Irritating)
same,I. A. Cornea opacity,[2]; [7],0
same,I. B. Area of cornea involved,[2]; [7],0
same,"I. Tot (cornea, A × B × 5)",[2]; [7],0
same,II. A. Iris,[2]; [7],0
same,"II. Tot (iris, A × 5)",[2]; [7],0
same,III. C. Discharge,[2]; [7],2 and 1
same,MMTS,"[2]; 0.5% Oligomer 4 in TBS, Day 2",1.0
same,MMTS classification symbol,"[2]; 0.5% Oligomer 4 in TBS, Day 2",N (0.0-0.5 Non-Irritating)
same,I. A. Cornea opacity,[2]; [8],0
same,I. B. Area of cornea involved,[2]; [8],0
same,"I. Tot (cornea, A × B × 5)",[2]; [8],0
same,II. A. Iris,[2]; [8],0
same,"II. Tot (iris, A × 5)",[2]; [8],0
same,III. A. Conjunctivae redness,[2]; [8],0
same,III. B. Chemosis,[2]; [8],0
same,MMTS,[2]; [9],6.5
same,MMTS classification,[2]; [9],M1 (2.6-15.0 Minimally Irritating)
same,MMTS,[2]; [10],1.0
same,MMTS classification,[2]; [10],N (0.0-0.5 Non-Irritating)
same,Dose dependence of ocular toxicity,"[2]; Example 7, 7 topical instillations, every 30 minutes for 3 hours",dose dependent ocular toxicity
same,Effect of addition of 100 μM Farnesol in 1% Propylene Glycol on ocular toxicity,"[2]; rabbit, in vivo",increased the toxicity
N=C(N)NCCCCC(=O)Nc1cc(C(F)(F)F)cc(NC(=O)c2cc(C(=O)Nc3cc(C(F)(F)F)cc(NC(=O)CCCCNC(=N)N)c3SCCN)ncn2)c1SCCN [Oligomer 2],Statistical comparison of corneal colony counts (< = significantly fewer colony counts),"[1]; Ker-1 (Example 9), 19 doses",effective
same,Statistical comparison of corneal colony counts (< = significantly fewer colony counts),"[1]; Ker-2 (Example 10), 21 doses",effective
same,Effect of addition of 0.005% benzalkonium chloride (BAK) on penetration through the intact corneal epithelium,"[1]; Ker-2, 0.25% Oligomer 2",did not aid in the penetration
same,Penetration of the corneal epithelium into the corneal stroma,[1]; in vivo,does not penetrate the corneal epithelium
same,I. A. Cornea opacity,"[2]; NZW, rabbit, in vivo, 0 day",0
same,I. B. Area of cornea involved,"[2]; NZW, rabbit, in vivo, 0 day",0
same,"I. Tot (cornea, A × B × 5)","[2]; NZW, rabbit, in vivo, 0 day",0
same,I. A. Cornea opacity,"[2]; NZW, rabbit, in vivo, 3 day",0
same,I. B. Area of cornea involved,"[2]; NZW, rabbit, in vivo, 3 day",0
same,"I. Tot (cornea, A × B × 5)","[2]; NZW, rabbit, in vivo, 3 day",0
same,II. A. Iris,"[2]; NZW, rabbit, in vivo, 3 day",0
same,"II. Tot (iris, A × 5)","[2]; NZW, rabbit, in vivo, 3 day",0
same,III. A. Conjunctivae redness,"[2]; NZW, rabbit, in vivo, 3 day",0
same,III. B. Chemosis,"[2]; NZW, rabbit, in vivo, 3 day",0
same,III. C. Discharge,"[2]; NZW, rabbit, in vivo, 3 day",0
same,"III. Tot (conjunctivae, (A + B + C) × 2)","[2]; NZW, rabbit, in vivo, 3 day",0
same,Score (Draize total),"[2]; NZW, rabbit, in vivo, 3 day",0
same,Dose dependence of ocular toxicity,"[2]; rabbit, in vivo",dose dependent ocular toxicity
same,Stinging / acute reactions upon instillation,"[2]; rabbit, in vivo",does not sting upon instillation
